Experimental data taken from patent EP0745595A1, “3-(3-Aryloxyphenyl)-1-(substituted methyl)-s-triazine-2,4,6-oxo or thiotrione herbicidal agents” (American Cyanamid Company, priority 1995, dated 1996).

Assays:
Assay type in all cases: in vivo
[1] = test system: ABUTILON THEOPHRASTI, MEDIC.; assay: Postemergence herbicidal evaluation, ABUTH (Velvetleaf); conditions: rated four to five weeks after treatment, averaged
How it was run: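 This postemergence herbicide test used two-week-old velvetleaf seedlings grown in jiffy flats. Each compound was sprayed at 40 psi as a dispersion in 50/50 acetone/water with 0.5% TWEEN®20 surfactant. Plants then received routine greenhouse care. After four to five weeks, injury was scored visually on a 0-9 scale against a control, and replicate tests were averaged.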

[2] = test system: AMBROSIA ARTEMISIIFOLIA, L.; assay: Postemergence herbicidal evaluation, AMBEL (Ragweed, Common); conditions: rated four to five weeks after treatment, averaged
How it was run: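 Postemergence herbicidal activity on AMBEL (common ragweed) was assessed on two-week-old seedlings grown in jiffy flats. Treatment solutions of 50/50 acetone/water with 0.5% TWEEN®20 surfactant were sprayed at 40 psi. After four to five weeks in the greenhouse, plants were scored 0-9 against a control for stand, vigor, malformation, size, chlorosis and overall appearance, with multiple tests averaged.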

[3] = test system: CASSIA OBTUSIFOLIA, L.; assay: Postemergence herbicidal evaluation, CASOB (Sicklepod); conditions: rated four to five weeks after treatment, averaged
How it was run: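 Ratings (0-9) reflect visual stand, vigor, malformation, size and chlorosis compared with untreated plants, assessed 4-5 weeks after postemergence spraying. Treatment was applied to roughly two-week-old seedlings at about 0.125-0.500 kg/ha in acetone/water with 0.5% Tween 20; replicate tests were averaged.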

[4] = test system: CHENOPODIUM ALBUM, L.; assay: Postemergence herbicidal evaluation, CHEAL (Lambsquarters, Common); conditions: rated four to five weeks after treatment, averaged
How it was run: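 Postemergence herbicidal activity on Chenopodium album was tested by spraying two-week-old seedlings grown in jiffy flats with compound in acetone/water (50/50) plus 0.5% TWEEN®20, using a 40 psi nozzle. Four to five weeks after treatment, stand, vigor, malformation, size, chlorosis and overall appearance were scored 0-9 relative to controls, with repeat tests averaged.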

[5] = test system: IPOMOEA SPP.; assay: Postemergence herbicidal evaluation, IPOSS (Morningglory spp.); conditions: rated four to five weeks after treatment, averaged
How it was run: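 In this greenhouse postemergence herbicide test on Ipomoea spp. (morningglory), compounds in 50/50 acetone/water with 0.5% TWEEN®20 were sprayed at 40 psi onto seedlings about two weeks old grown in jiffy flats. After four to five weeks, injury was scored on a 0-9 scale covering stand, vigor, malformation, size, chlorosis and overall appearance versus control, with repeat tests averaged.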

[6] = test system: SETARIA VIRIDIS, (L) BEAU; assay: Postemergence herbicidal evaluation, SETVI (Foxtail, Green); conditions: rated four to five weeks after treatment, averaged
How it was run: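 Postemergence foliar spray at approximately 0.125–0.500 kg/ha onto two-week seedlings; greenhouse hold, then 0–9 visual injury rating after 4–5 weeks.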

[7] = test system: CASSIA OBTUSIFOLIA, L.; assay: Preemergence herbicidal evaluation, CASOB (Sicklepod); conditions: four to five weeks after treatment
Description: (§1) Results of herbicide evaluation are expressed on a rating scale (0-9). The scale is based upon a visual observation of plant stand, vigor, malformation, size, chlorosis and overall plant appearance as compared with a control.
(§2) The preemergence herbicidal activity of the test compounds of the present invention is exemplified by the following tests in which the seeds of a variety of monocotyledonous and dicotyledonous plants are separately mixed with potting soil and planted on top of approximately one inch of soil in separate pint cups. […] The treated cups are then placed on greenhouse benches, watered and cared for in accordance with conventional greenhouse procedures. From four to five weeks after treatment, the tests are terminated and each cup is examined and rated according to the rating system provided in Example 40.
(§3) The compounds evaluated are reported by compound number given in Example 40.

[8] = test system: CHENOPODIUM ALBUM, L.; assay: Preemergence herbicidal evaluation, CHEAL (Lambsquarters, Common); conditions: four to five weeks after treatment
How it was run: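 First, seeds in potting soil are sown atop soil in cups. Next, the surface is sprayed with test compound in aqueous acetone at roughly 0.125 to 0.50 kg per hectare. After four to five weeks of greenhouse care, each cup is scored 0-9 against a control.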

[9] = test system: ECHINOCHLOA CRUS-GALLI, (L) BEAU; assay: Preemergence herbicidal evaluation, ECHCG (Barnyardgrass); conditions: for ECHCG rating: four to five weeks after treatment; for ECHCG herbicidal rating: rated four to five weeks after treatment
Description: as §1, §2, §3

[10] = test system: GLYCINE MAX(L) MERR. CV. WILLIAMS; assay: Preemergence herbicidal evaluation, GLXMAW (Soybean, Williams); conditions: for GLXMAW rating: four to five weeks after treatment; for GLXMAW herbicidal rating: rated four to five weeks after treatment
Description: as §1, §2, §3

[11] = test system: ZEA MAYS L.; assay: Preemergence herbicidal evaluation, ZEAMX (Corn, Field); conditions: four to five weeks after treatment
Description: as §1, §2, §3

[12] = test system: ECHINOCHLOA ORYZOIDES (ARD.)FRITSCH; assay: Preemergence weed control under flooded paddy conditions, ECHORC (Watergrass (Calif.)); conditions: for ECHORC herbicidal rating: preemergence weeds, rated three to four weeks after treatment; for Herbicidal effect rating, ECHORC: 0.500 kg/ha, preemergence, 3-4 weeks after treatment
Description: as §1
(§4) Preemergence herbicidal activity under flooded paddy conditions is determined as follows: plant seeds or propagating organs are planted in the top 0.5 cm of silt loam soil in 32 oz. plastic containers with a diameter of 10.5 cm and no drainage holes. Water is added to these containers and maintained at 1.5 to 3 cm above the soil surface for the duration of the experiment. […] The treated containers are placed on greenhouse benches and cared for according to normal greenhouse procedures.- Three to four weeks after treatment the test is terminated and each container is examined and herbicidal effect rated according to the rating system provided in Example 40. The compounds evaluated are reported by compound number given in Example 40.
(§5) Plant species employed in this example are reported by header abbreviation, common name and scientific name.

[13] = test system: SAGITTARIA PYGMAEA, L.; assay: Preemergence weed control under flooded paddy conditions, SAGPY (Arrowhead (Pygmaea)); conditions: for SAGPY herbicidal rating: preemergence weeds, rated three to four weeks after treatment; for Herbicidal effect rating, SAGPY: 0.500 kg/ha, preemergence, 3-4 weeks after treatment
How it was run: (§6)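 In undrained pots of silt loam flooded to 1.5-3 cm, compounds are pipetted into the water before emergence at the equivalent of about 0.5, 0.25, 0.125 and 0.063 kg/ha. Plants are scored 0-9 for stand, vigor, malformation, size and chlorosis at test end (3-4 weeks).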

[14] = test system: ORYZA SATIVA, L. TEBONNET; assay: Rice tolerance to post-transplant applications under flooded paddy conditions, ORYSAT (Rice, Tebonnet); conditions: post-transplant rice; for ORYSAT herbicidal rating (rice tolerance): rated three to four weeks after treatment; for Herbicidal effect rating, ORYSAT: 0.500 kg/ha, 3-4 weeks after treatment;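 as to ORYSAT herbicidal rating (rice tolerance): applied to flooded soil surface three days after transplanting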
How it was run: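 Greenhouse pots of silt loam, each with two transplanted ten-day-old seedlings, are held under 1.5 to 3 cm of standing water. Three days later the compound is applied to the flooded surface at about 0.5, 0.25, 0.125 or 0.063 kg/ha. Damage is scored visually 0-9 after 3-4 weeks.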

[15] = test system: CYPERUS IRIA; assay: Preemergence weed control under flooded paddy conditions, CYPIR (Rice Flatsedge); conditions: 0.500 kg/ha, preemergence, 3-4 weeks after treatment
Description: as §1, §4, §5

[16] = test system: CYPERUS SEROTINUS, ROTTB.; assay: Preemergence weed control under flooded paddy conditions, CYPSE (Flatsedge); conditions: 0.500 kg/ha, preemergence, 3-4 weeks after treatment
How it was run: as §6

[17] = test system: […], PRESL.; assay: Preemergence weed control under flooded paddy conditions, MOOVA (Monochoria); conditions: 0.500 kg/ha, preemergence, 3-4 weeks after treatment
How it was run: as §6

[18] = test system: ORYZA SATIVA, L. TEBONNET; assay: Postemergence herbicidal evaluation, ORYSAT (Rice, Tebonnet); design: key: 0-9 visual rating scale vs untreated control
Description: In the tests, seedling plants are grown in jiffy flats for about two weeks. The test compounds are dispersed in 50/50 acetone/water mixtures containing 0.5% TWEEN®20, a polyoxyethylene sorbitan monolaurate surfactant of Atlas Chemical Industries, in sufficient quantities to provide the equivalent of about 0.125 kg to 0.500 kg per hectare of active compound when applied to the plants through a spray nozzle operating at 40 psi for a predetermined time. After spraying, the plants are placed on greenhouse benches and are cared for in the usual manner, commensurate with conventional greenhouse practices. From four to five weeks after treatment, the seedling plants are examined and rated according to the rating system set forth below. Where more than one test is involved for a given compound, the data are averaged.
Plant species employed in these evaluations are reported by header abbreviation, common name and scientific name.
as §1

CCOC(=O)Cn1c(=O)n(C)c(=O)n(-c2cc(Oc3c(F)cc(C(F)(F)F)cc3Cl)ccc2C#N)c1=O [Compound 11, Ethyl 3-{5-[(2-chloro-α,α,α,6-tetrafluoro-p-tolyl)oxy]-2-cyanophenyl}tetrahydro-5-methyl-2,4,6-trioxo-s-triazine-1(2H)-acetate]
9.0: ABUTH, herbicide rating (0-9) ([1]; Rate 0.125 kg/ha) | ABUTH, herbicide rating (0-9) ([1]; Rate 0.250 kg/ha) | ABUTH, herbicide rating (0-9) ([1]; Rate 0.500 kg/ha) | AMBEL, herbicide rating (0-9) ([2]; Rate 0.125 kg/ha) | AMBEL, herbicide rating (0-9) ([2]; Rate 0.250 kg/ha) | AMBEL, herbicide rating (0-9) ([2]; Rate 0.500 kg/ha) | CASOB, herbicide rating (0-9) ([3]; Rate 0.125 kg/ha) | CASOB, herbicide rating (0-9) ([3]; Rate 0.250 kg/ha) | CASOB, herbicide rating (0-9) ([3]; Rate 0.500 kg/ha) | CHEAL, herbicide rating (0-9) ([4]; Rate 0.125 kg/ha) | CHEAL, herbicide rating (0-9) ([4]; Rate 0.250 kg/ha) | CHEAL, herbicide rating (0-9) ([4]; Rate 0.500 kg/ha) | IPOSS, herbicide rating (0-9) ([5]; Rate 0.125 kg/ha) | IPOSS, herbicide rating (0-9) ([5]; Rate 0.250 kg/ha) | IPOSS, herbicide rating (0-9) ([5]; Rate 0.500 kg/ha) | SETVI, herbicide rating (0-9) ([6]; Rate 0.125 kg/ha) | SETVI, herbicide rating (0-9) ([6]; Rate 0.250 kg/ha) | SETVI, herbicide rating (0-9) ([6]; Rate 0.500 kg/ha) | CHEAL rating ([8]; Rate 0.125 kg/ha) | CHEAL rating ([8]; Rate 0.250 kg/ha) | CHEAL rating ([8]; Rate 0.500 kg/ha) | ECHORC herbicidal rating ([12]; Rate 0.063 kg/ha) | ECHORC herbicidal rating ([12]; Rate 0.125 kg/ha) | ECHORC herbicidal rating ([12]; Rate 0.250 kg/ha) | ECHORC herbicidal rating ([12]; Rate 0.500 kg/ha)
1.0: ORYSAT herbicidal rating (rice tolerance) ([14]; Rate 0.250 kg/ha) | ORYSAT herbicidal rating (rice tolerance) ([14]; Rate 0.500 kg/ha)
0.0: CASOB rating ([7]; Rate 0.125 kg/ha) | CASOB rating ([7]; Rate 0.250 kg/ha) | CASOB rating ([7]; Rate 0.500 kg/ha) | ECHCG rating ([9]; Rate 0.125 kg/ha) | ECHCG rating ([9]; Rate 0.250 kg/ha) | ECHCG rating ([9]; Rate 0.500 kg/ha) | GLXMAW rating ([10]; Rate 0.125 kg/ha) | GLXMAW rating ([10]; Rate 0.250 kg/ha) | GLXMAW rating ([10]; Rate 0.500 kg/ha) | ZEAMX rating ([11]; Rate 0.125 kg/ha) | ZEAMX rating ([11]; Rate 0.250 kg/ha) | ZEAMX rating ([11]; Rate 0.500 kg/ha) | SAGPY herbicidal rating ([13]; Rate 0.063 kg/ha) | SAGPY herbicidal rating ([13]; Rate 0.125 kg/ha) | SAGPY herbicidal rating ([13]; Rate 0.250 kg/ha) | SAGPY herbicidal rating ([13]; Rate 0.500 kg/ha) | ORYSAT herbicidal rating (rice tolerance) ([14]; Rate 0.063 kg/ha) | ORYSAT herbicidal rating (rice tolerance) ([14]; Rate 0.125 kg/ha)

COC(=O)Cn1c(=O)n(C)c(=O)n(-c2cc(Oc3cc(OC)c(Cl)cc3Cl)ccc2[N+](=O)[O-])c1=O [Compound 29, Methyl 3-[5-(2,4-dichloro-5-methoxyphenoxy)-2-nitrophenyl]tetrahydro-5-methyl-2,4,6-trioxo-s-triazine-1(2H)-acetate]
0.0: ECHCG herbicidal rating ([9]; Rate 0.125 kg/ha) | ECHCG herbicidal rating ([9]; Rate 0.250 kg/ha) | ECHCG herbicidal rating ([9]; Rate 0.500 kg/ha) | GLXMAW herbicidal rating ([10]; Rate 0.125 kg/ha) | GLXMAW herbicidal rating ([10]; Rate 0.250 kg/ha) | GLXMAW herbicidal rating ([10]; Rate 0.500 kg/ha) | Herbicidal effect rating, ECHORC [12] | Herbicidal effect rating, CYPIR [15] | Herbicidal effect rating, CYPSE [16] | Herbicidal effect rating, MOOVA [17] | Herbicidal effect rating, SAGPY [13] | Herbicidal effect rating, ORYSAT [14]

COC(=O)Cn1c(=O)n(C)c(=O)n(-c2cc(Oc3cc(F)c(F)cc3F)ccc2[N+](=O)[O-])c1=O [Compound 30]
3.0: ORYSAT rating ([18]; Rate 0.125 kg/ha) | ORYSAT rating ([18]; Rate 0.250 kg/ha) | ORYSAT rating ([18]; Rate 0.500 kg/ha)
0.0: Herbicidal effect rating, ECHORC [12] | Herbicidal effect rating, CYPIR [15] | Herbicidal effect rating, CYPSE [16] | Herbicidal effect rating, MOOVA [17] | Herbicidal effect rating, SAGPY [13]
1.0: Herbicidal effect rating, ORYSAT [14]
